In PubChem BioAssay (NCI):
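Five compound concentrations were applied to cells in 96-well plates for 48 hours; endpoints were derived by simple linear interpolation of the resulting dose-response curve. Here, GI50 denotes the concentration required for 50% inhibition of growth. At the TGI there is no net growth.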

How the values were obtained:
Experiment in all cases: inhibition of tumour cell growth, NCI panel, 48 h
[1] = tested on: SK-MEL-28 melanoma
[2] = tested on: HOP-92 NSCLC
[3] = tested on: OVCAR-5 ovarian
[4] = tested on: CAKI-1 renal
[5] = tested on: UACC-257 melanoma
[6] = tested on: SNB-75 CNS
[7] = tested on: HCT-15 colon
[8] = tested on: SW-620 colon
[9] = tested on: HCT-116 colon
[10] = tested on: MALME-3M melanoma
[11] = tested on: DU-145 prostate
[12] = tested on: ACHN renal
[13] = tested on: A498 renal
[14] = tested on: UO-31 renal
[15] = tested on: MDA-MB-435
[16] = tested on: 786-0 renal
[17] = tested on: SF-539 CNS
[18] = tested on: COLO 205 colon
[19] = tested on: OVCAR-3 ovarian
[20] = tested on: U251 CNS
[21] = tested on: BT-549 breast
[22] = tested on: SK-MEL-5 melanoma
[23] = tested on: NCI-H460 lung
[24] = tested on: OVCAR-8 ovarian
[25] = tested on: T-47D breast
[26] = tested on: HT29 colon
[27] = tested on: SN12C renal
[28] = tested on: SF-295 CNS
[29] = tested on: RXF 393 renal
[30] = tested on: M14 melanoma
[31] = tested on: SNB-19 CNS
[32] = tested on: HOP-62 NSCLC
[33] = tested on: PC-3 prostate
[34] = tested on: SK-MEL-2 melanoma
[35] = tested on: SF-268 CNS
[36] = tested on: UACC-62 melanoma
[37] = tested on: KM12 colon
[38] = tested on: TK-10 renal
[39] = tested on: HS 578T breast
[40] = tested on: HL-60(TB) leukemia
[41] = tested on: NCI-H522 lung
[42] = tested on: NCI/ADR-RES ovarian
[43] = tested on: MDA-MB-231 breast
[44] = tested on: SR leukemia
[45] = tested on: SK-OV-3 ovarian
[46] = tested on: OVCAR-4 ovarian
[47] = tested on: K-562 leukemia
[48] = tested on: IGROV1 ovarian
[49] = tested on: MCF7 breast
[50] = tested on: NCI-H23 lung
[51] = tested on: LOX IMVI melanoma
[52] = tested on: A549 NSCLC
[53] = tested on: RPMI-8226 leukemia
[54] = tested on: NCI-H226 lung
[55] = tested on: EKVX NSCLC
[56] = tested on: MOLT-4 leukemia

With CN1/C(=C/C=C/c2n(Cc3ccc4ccccc4c3)c(Cl)c(Cl)[n+]2Cc2ccc3ccccc3c2)Oc2ccccc21 the GI50 [1] was 0.505 µM, the TGI [1] was 1.75 µM and the GI50 [2] was 0.212 µM. It also gave a TGI [2] of 0.685 µM, a GI50 [3] of 0.373 µM and a TGI [3] of 1.59 µM. For the same compound, the GI50 [4] was 0.553 µM, the TGI [4] was 1.83 µM and the GI50 [5] was 0.338 µM. The TGI [5] was 1.44 µM, the GI50 [6] was 0.176 µM and the TGI [6] was 0.731 µM. For the same compound, the GI50 [7] was 1.24 µM, the TGI [7] was 2.68 µM and the GI50 [8] was 0.294 µM. For the same compound, the TGI [8] was 1.15 µM, the GI50 [9] was 0.255 µM and the TGI [9] was 1.08 µM. For the same compound, the GI50 [10] was 0.201 µM, the TGI [10] was 0.625 µM and the GI50 [11] was 0.403 µM. It also gave a TGI [11] of 1.54 µM, a GI50 [12] of 0.494 µM and a TGI [12] of 1.67 µM. For the same compound, the GI50 [13] was 0.198 µM, the TGI [13] was 0.756 µM and the GI50 [14] was 1.35 µM. It also gave a TGI [14] of 2.65 µM, a GI50 [15] of 0.327 µM and a TGI [15] of 1.09 µM.

Cc1nccn1CC1CCc2c(c3ccccc3n2C)C1=O (stereo unspecified) gave a GI50 [16] of 78.8 µM, a GI50 [17] of 73.7 µM and a GI50 [18] of 78.7 µM. For the same compound, the GI50 [3] was 95.3 µM, the GI50 [19] was 90.3 µM and the GI50 [20] was 81 µM. The GI50 [21] was 77.3 µM, the GI50 [22] was 66.8 µM and the GI50 [5] was 42.3 µM. It also gave a TGI [5] of 64.3 µM, a GI50 [23] of 45.7 µM and a TGI [23] of 68.1 µM. The GI50 [6] was 56.5 µM, the GI50 [24] was 49.8 µM and the GI50 [9] was 65.6 µM. It also gave a GI50 [25] of 71.1 µM, a GI50 [26] of 27.9 µM and a TGI [26] of 49.2 µM. For the same compound, the GI50 [27] was 87.9 µM, the GI50 [14] was 78.5 µM and the GI50 [15] was 90.2 µM. It also gave a GI50 [28] of 39.1 µM and a TGI [28] of 60.9 µM.

With CC(=O)O[C@H]1CC[C@]2(C)C3C(=O)C[C@]4(C)[C@@H](C(C)CCC(=O)O)CC[C@@]4(C)[C@@H]3CC[C@H]2C1(C)C (stereo partly specified) the GI50 [29] was 15.5 µM, the TGI [29] was > 50 µM and the GI50 [16] was 20.7 µM. For the same compound, the TGI [16] was > 50 µM, the GI50 [1] was 28.6 µM and the TGI [1] was > 50 µM. For the same compound, the GI50 [30] was 20.5 µM, the TGI [30] was > 50 µM and the GI50 [17] was 12.8 µM. For the same compound, the TGI [17] was 35.2 µM, the GI50 [31] was 21 µM and the TGI [31] was > 50 µM. The GI50 [32] was 27.2 µM, the TGI [32] was > 50 µM and the GI50 [18] was 20.9 µM. For the same compound, the TGI [18] was > 50 µM, the GI50 [2] was 36.8 µM and the TGI [2] was > 50 µM. For the same compound, the GI50 [33] was 18.3 µM, the TGI [33] was > 50 µM and the GI50 [34] was 45.8 µM. The TGI [34] was > 50 µM, the GI50 [3] was > 50 µM and the TGI [3] was > 50 µM. The GI50 [35] was 21.1 µM, the TGI [35] was > 50 µM and the GI50 [36] was 21.7 µM. For the same compound, the TGI [36] was > 50 µM, the GI50 [19] was 25.9 µM and the TGI [19] was > 50 µM. It also gave a GI50 [20] of 7 µM, a TGI [20] of 20 µM and a GI50 [37] of 13.9 µM. For the same compound, the TGI [37] was 38.4 µM, the GI50 [38] was 21.8 µM and the TGI [38] was > 50 µM. The GI50 [39] was 11.9 µM, the TGI [39] was 39.5 µM and the GI50 [40] was 8.65 µM. For the same compound, the TGI [40] was > 50 µM, the GI50 [41] was > 50 µM and the TGI [41] was > 50 µM. The GI50 [4] was 20.8 µM, the TGI [4] was 46.1 µM and the GI50 [21] was 17 µM. For the same compound, the TGI [21] was 39.4 µM, the GI50 [42] was 16.5 µM and the TGI [42] was > 50 µM. The GI50 [43] was > 50 µM, the TGI [43] was > 50 µM and the GI50 [44] was 16.6 µM. The TGI [44] was > 50 µM, the GI50 [45] was 21.4 µM and the TGI [45] was > 50 µM. The GI50 [46] was 40.4 µM, the TGI [46] was > 50 µM and the GI50 [22] was 8.53 µM. For the same compound, the TGI [22] was 17.5 µM, the GI50 [47] was 14.9 µM and the TGI [47] was > 50 µM. For the same compound, the GI50 [5] was 13.3 µM, the TGI [5] was 33.9 µM and the GI50 [23] was 14.3 µM. The TGI [23] was > 50 µM, the GI50 [48] was 34.7 µM and the TGI [48] was > 50 µM. The GI50 [6] was 42.7 µM, the TGI [6] was > 50 µM and the GI50 [49] was 20.7 µM. The TGI [49] was > 50 µM, the GI50 [24] was 15.7 µM and the TGI [24] was > 50 µM. The GI50 [50] was 19.1 µM, the TGI [50] was > 50 µM and the GI50 [51] was 7.64 µM. The TGI [51] was 20.7 µM, the GI50 [52] was 15.6 µM and the TGI [52] was > 50 µM. For the same compound, the GI50 [7] was 11.7 µM, the TGI [7] was 46.9 µM and the GI50 [8] was 19.4 µM. For the same compound, the TGI [8] was > 50 µM, the GI50 [9] was 9.37 µM and the TGI [9] was 20.5 µM. For the same compound, the GI50 [11] was 19.7 µM, the TGI [11] was > 50 µM and the GI50 [53] was 9.79 µM. For the same compound, the TGI [53] was > 50 µM, the GI50 [12] was 10.7 µM and the TGI [12] was 35.4 µM. For the same compound, the GI50 [54] was > 50 µM, the TGI [54] was > 50 µM and the GI50 [55] was 10.2 µM. For the same compound, the TGI [55] was 36.8 µM, the GI50 [56] was > 50 µM and the TGI [56] was > 50 µM. The GI50 [13] was 22.2 µM, the TGI [13] was > 50 µM and the GI50 [26] was 18.6 µM. For the same compound, the TGI [26] was > 50 µM, the GI50 [27] was > 50 µM and the TGI [27] was > 50 µM. For the same compound, the GI50 [14] was 40.7 µM, the TGI [14] was > 50 µM and the GI50 [15] was 13.5 µM. For the same compound, the TGI [15] was 33.8 µM, the GI50 [28] was 17.9 µM and the TGI [28] was > 50 µM.
